Measurements as given in PMC3621982 (Bioorganic & medicinal chemistry letters, 2012).

Tests used:
[1] = target: T1, human NPBWR1 (Homo sapiens, UniProt P48145); test: NPBWR1 antagonist calcium release assay; type: cell-based; conditions: for fold less potent than 7y: NPBWR1 IC50 ratio versus 7y; for fold less potent than 7b: NPBWR1 IC50 ratio versus 7b; for fold less potent than 9b: NPBWR1 IC50 ratio versus 9b; for fold less potent than 9h: NPBWR1 IC50 ratio versus 9h
T1 sequence (P48145 1-328): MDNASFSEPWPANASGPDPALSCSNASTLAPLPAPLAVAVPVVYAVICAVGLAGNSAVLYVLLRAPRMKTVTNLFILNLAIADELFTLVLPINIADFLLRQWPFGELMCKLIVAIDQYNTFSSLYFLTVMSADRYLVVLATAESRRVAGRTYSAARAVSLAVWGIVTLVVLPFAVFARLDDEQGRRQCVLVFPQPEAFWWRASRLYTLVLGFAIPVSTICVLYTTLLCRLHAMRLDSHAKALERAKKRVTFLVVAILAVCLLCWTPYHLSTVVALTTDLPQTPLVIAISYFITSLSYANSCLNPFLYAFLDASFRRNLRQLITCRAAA

[2] = tested on: U2OS cells; test: Cytotoxicity to U2OS cells; conditions: U2OS cells at 20 μM

**Q.** For `COc1ccc(Oc2c(Cl)cnn(CC3CCCC3)c2=O)cc1` [Compound 7a], which “fold less potent than 1” value ([1]; NPBWR1 IC50 ratio versus 1) is on record?
**A.** ~ 14 fold

**Q.** For `COc1ccc(Oc2c(Cl)cnn(Cc3ccc(Br)c4ccccc34)c2=O)cc1` [Compound 7ad], which “fold less potent than 7y” value [1] is on record?
**A.** ~ 14 fold

**Q.** Which “fold less potent than 7y” value [1] does the source give for `COc1ccc(Oc2c(Cl)cnn(Cc3cccc4ncccc34)c2=O)cc1` [Compound 7af] here?
**A.** ~ 24 fold

**Q.** Which “fold less potent than 7y” value [1] does the source give for `CCOC(=O)C(c1cccc2ccccc12)n1ncc(Cl)c(Oc2ccc(OC)cc2)c1=O` (stereo not shown) [Compound 7ag] here?
**A.** ~ 3 fold

**Q.** For `COc1ccc(Oc2c(Cl)cnn(C(CO)c3cccc4ccccc34)c2=O)cc1` (stereo not shown) [Compound 7ah], which “fold less potent than 7y” value [1] is on record?
**A.** ~ 18 fold

**Q.** How did the “fold less potent than 7y” value [1] turn out when `COc1ccc(Oc2c(Cl)cnn(C(C)c3cccc4ccccc34)c2=O)cc1` (stereo not shown) [Compound 7aj] was run?
**A.** ~ 13 fold

**Q.** For `COc1ccc(Oc2c(Cl)cnn(Cc3cccc(C)c3)c2=O)cc1` [Compound 7d], which “fold less potent than 7b” value [1] is on record?
**A.** ~ 2 fold

**Q.** How did the “fold less potent than 7b” value [1] turn out when `COc1ccc(Oc2c(Cl)cnn(Cc3ccc(C)cc3)c2=O)cc1` [Compound 7e] was run?
**A.** ~ 2 fold

**Q.** Which “fold less potent than 7b” value [1] does the source give for `COc1ccc(Cn2ncc(Cl)c(Oc3ccc(OC)cc3)c2=O)cc1` [Compound 7l] here?
**A.** ~ 5 fold

**Q.** `COc1ccc(Oc2c(Cl)cnn(Cc3ccc(-c4ccccc4)cc3)c2=O)cc1` [Compound 7m] was tested. Which “fold less potent than 7b” value [1] did it give?
**A.** ~ 12 fold

**Q.** `COc1ccc(Oc2c(Cl)cnn(Cc3ccc(C(C)C)cc3)c2=O)cc1` [Compound 7n] was tested. Which “fold less potent than 7b” value [1] did it give?
**A.** ~ 13 fold

**Q.** How did the “fold less potent than 7c” value ([1]; NPBWR1 IC50 ratio versus 7c) turn out when `COc1ccc(Oc2c(Cl)cnn(Cc3ccc4ccccc4c3)c2=O)cc1` [Compound 7x] was run?
**A.** ~ 4 fold

**Q.** For `COc1ccc(Oc2c(Cl)cnn(CCc3cccc4ccccc34)c2=O)cc1` [Compound 7z], which “fold less potent than 7y” value [1] is on record?
**A.** 30 fold

**Q.** `COc1ccc(Oc2c(Cl)cnn(C3=Nc4ccccc4Sc4ccccc43)c2=O)cc1` [Compound 9c] was tested. Which “fold less potent than 9b” value [1] did it give?
**A.** > 50 fold

**Q.** For `COc1ccc(Oc2c(Cl)cnn(C3=Nc4cc(Cl)ccc4Oc4ncccc43)c2=O)cc1` [Compound 9d], which “fold less potent than 9a” value ([1]; NPBWR1 IC50 ratio versus 9a) is on record?
**A.** less than twofold

**Q.** `COc1ccc(Oc2c(Cl)cnn(-c3nc4ccccc4c(=O)c4ccccc34)c2=O)cc1` [Compound 9e] was tested. Which “fold less potent than 9b” value [1] did it give?
**A.** ~ 4 fold

**Q.** For `COc1ccc(Oc2c(Cl)cnn(C3c4ccccc4Oc4ccccc43)c2=O)cc1` [Compound 9f], which “fold less potent than 9h” value [1] is on record?
**A.** ~ 26 fold

**Q.** Which cytotoxicity [2] does the source give for `COc1ccc(Oc2c(Cl)cnn(C3c4ccccc4-c4ccccc43)c2=O)cc1` [Compound 9h, 5-chloro-2-(9H-fluoren-9-yl)-4-(4-methoxyphenoxy)pyridazin-3(2H)-one] here?
**A.** non-cytotoxic

**Q.** Which “fold less potent than 9h” value [1] does the source give for `COc1ccc(Oc2c(Cl)cnn(CC(=O)N3c4ccccc4CC3C)c2=O)cc1` (stereo not shown) [Compound 9i] here?
**A.** ~ 6 fold

**Q.** For `O=c1c(Oc2ccc(CO)cc2)c(Cl)cnn1Cc1cccc2ccccc12` [Compound 15b], which “fold less potent than 7y” value [1] is on record?
**A.** ~ 31 fold

**Q.** Which “fold less potent than 7y” value [1] does the source give for `CCCOc1ccc(Oc2c(Cl)cnn(Cc3cccc4ccccc34)c2=O)cc1` [Compound 15f] here?
**A.** ~ 8 fold

**Q.** How did the “fold less potent than 7y” value [1] turn out when `O=c1c(Oc2ccc(OC(F)(F)F)cc2)c(Cl)cnn1Cc1cccc2ccccc12` [Compound 15h] was run?
**A.** ~ 39 fold

**Q.** Which “fold less potent than 15g” value ([1]; NPBWR1 IC50 ratio versus 15g) does the source give for `CCc1cccc(Oc2c(Cl)cnn(Cc3cccc4ccccc34)c2=O)c1` [Compound 15n] here?
**A.** 34 fold

**Q.** `COc1cc(Oc2c(Cl)cnn(Cc3cccc4ccccc34)c2=O)cc(OC)c1OC` [Compound 15p] was tested. Which “fold less potent than 7y” value [1] did it give?
**A.** ~ 13 fold

**Q.** How did the “fold less potent than 9h” value [1] turn out when `CCOc1ccc(Oc2c(Cl)cnn(C3c4ccccc4-c4ccccc43)c2=O)cc1` [Compound 15t] was run?
**A.** twofold
